Reference: patent publication US8633308B2, “Compounds for preventing or treating viral infections and methods of use thereof” (The Governors of The University of Alberta, priority 2007, dated 2014)
“And” between values parts separate entries of the source, which are not always exact repeats. Equal entries are not always repeated. “Also recorded” adds a separate entry of the source. Where two headings read alike, the source gives them in different places.

Columns and labels:
HSV-1 KOS [1] = test: HSV-1 infectivity plaque assay, virions pretreated with compound, Vero cells; format: cell-based, herpes simplex virus type 1; conditions: for potency compared with dUY11: infections of cultured cells
Vero cells [2] = test: Cytotoxic/cytostatic effects, trypan blue exclusion cell counts; conditions: for cytotoxicity (in words): cultured cells
HSV-1 [3] = test: HSV-1 DNA replication, Southern blot of intracellular viral DNA in infected Vero cells; format: cell-based, herpes simplex virus type 1; conditions: 2 μM, 5 PFU/cell, 1, 5, 18, 24 hpi
Protocol: To identify whether the amphipathic nucleoside derivatives inhibited either viral DNA replication or viral gene expression, the ability of the amphipathic nucleoside derivatives to inhibit the accumulation of HSV-1 DNA was tested.

HSV-1 [4] = test: Release of HSV-1 DNA/virions by infected Vero cells, Southern blot of extracellular viral DNA; format: cell-based, herpes simplex virus type 1; conditions: 2 μM, 1, 5, 18, 24 hpi
HSV-1 KOS [5] = test: HSV-1 infectivity plaque assay, pretreated virions, Human Foreskin Fibroblasts; format: cell-based, herpes simplex virus type 1; conditions: HFF
Source text: FIG. 8 is a line graph showing HSV-1 infectivity plotted against concentration of dUY11. […] As expected, dUY11 treated virions were equally non-infectious for Vero cells or Human Foreskin Fibroblasts.

HSV-1 KOS [6] = test: Binding of radiolabeled HSV-1 virions to Vero cells; format: cell-based, herpes simplex virus type 1; conditions: 7 μM; adsorption at 4° C. for 1 hour
Protocol: Infectivity was inhibited by pre-treating HSV-1 virions with the amphipathic nucleoside derivatives before infection. These nucleosides may thus inhibit HSV-1 infectivity by, for example, preventing virion binding to cells. Alternatively, they may disrupt extracellular virions (i.e. have virucidal activities). […] The binding of HSV-1 virions pre-treated with dUY11 was assessed. FIG. 11 is a bar graph and photographic images showing HSV-1 binding (A) and infectivity (B). In parallel studies, [35]S-Methionine radiolabeled (approximately 4×10^5 cpm in 2.5×10^5 PFU) (A) or non-radiolabeled HSV-1 KOS (B) were pretreated with no drug (white bar), 7 μM dUY11 (striped bar), or 100 μg/ml heparin (black bar) for 5 minutes at 37° C. The samples were then cooled on ice. Inocula were diluted (1:20, 1:100) in ice-cold serum-free media supplemented with no drug, 7 μM dUY11, or 100 μg/ml heparin. Vero cells were infected with the so-pretreated virions at 4° C. for 1 hour, washed three times with ice-cold serum-free medium and lysed. Bound virions were quantified by liquid scintillation. Error bars represent ranges of three experiments (A).

HSV-1 [7] = test: High-affinity binding of HSV-1 virions, heparin competition; format: cell-based, herpes simplex virus type 1; conditions: 7 μM
Protocol: dUY11 was next evaluated for its ability to affect high-affinity binding. FIG. 12 is a line graph showing competition of HSV-1 binding to cells by increasing concentration of heparin. […] Inocula were cooled on ice, and then diluted (1:10) in ice-cold serum-free media with or without 7 μM dUY11. Following 15 minute adsorption onto Vero cells, unbound virions were washed away. […] Virions stripped away by these washes were then quantified by liquid scintillation. Error bars represent ranges of two experiments. […] Therefore, the amphipathic nucleoside derivatives inhibit a step between high-affinity binding and viral DNA replication.

HSV-1 KOS [8] = test: HSV-1 entry, RFP reporter under HSV-1 ICP0 IE promoter in Vero cells; format: cell-based, herpes simplex virus type 1; conditions: virions pretreated with 2 μM; 24 hpi
HSV-2 strain 186 = format: cell-based, HSV type 2; conditions: virions pretreated 5 minutes at 37° C.; Vero cells; read-out: IC50, infectivity of HSV-2 strain 186
HSV-2 strain 333 = format: cell-based, HSV type 2; conditions: virions pretreated 5 minutes at 37° C.; Vero cells; read-out: IC50, infectivity of HSV-2 strain 333
VSV = format: cell-based, vesicular stomatitis virus; conditions: virions pretreated 5 minutes at 37° C.; Vero cells; read-out: IC50, infectivity of VSV
SIN virus = format: cell-based, Sindbis virus; conditions: virions pretreated 5 minutes at 37° C.; Vero cells; read-out: IC50, infectivity of SIN
HSV-1 KOS [9] = test: HSV-1 infectivity, Vero cells pretreated with compound, untreated virions; format: cell-based, herpes simplex virus type 1; conditions: IC50 5.4 μM versus 20 nM
HSV-1 KOS [10] = test: Infectivity of progeny virions produced by treated infected Vero cells, plaque assay; format: cell-based, herpes simplex virus type 1
Protocol: Virions produced by cells infected and treated with said compounds after infection should therefore not be as infectious as virions produced by untreated cells. FIG. 16A is a line graph showing the reduction in infectivity of virions produced by cells treated with amphipathic nucleoside derivatives for 24 hours and plotted against drug concentration. Vero cells were infected with HSV-1 KOS at a multiplicity of infection (MOI) of 3 PFU/cell. […] Cells were harvested at 24 hpi and viral infectivity was evaluated by standard plaque assays. Error bars represent ranges of 3 or more experiments. The virions produced in the presence of dUY11 were 8 orders of magnitude less infectious than those produced by untreated cells (FIG. 16A). The experiments were then repeated, but limiting the exposure of the infected cells to dUY11 to only 1 hour, immediately after removing the viral inoculum (FIG. 16B). […] Infected cells were then incubated without drug for 22 h, then the infectivity of the progeny virions was assessed. […] Therefore, dUY11 interacts with pre-existing cellular factors that are incorporated into virions, such as membrane lipids.

HSV-2 = test: Mouse vaginal infection with HSV-2 virions exposed to compound; format: in vivo, mice
Source text: In order to determine whether an amphipathic nucleoside derivative described herein inhibited viral transmission, a model vaginal infection with a sexually transmitted virus, HSV-2, was used. […] All five mice infected with 3×10^3 infectious virions, and three of the mice infected with 10^3, had to be euthanized between days 7 and 9 due to advanced illness (FIGS. 18E and 19A-B).

[11] = Dispersion and stability in culture medium; format: physicochemical
Vero cells [12] = test system: Vero cells
HSV-1 [13] = test: HSV-1 replication, cells treated only after infection with untreated virions; conditions: post-adsorption treatment of cells
Protocol: HSV-1 inocula were incubated at 37° C. for 0 or 5 minutes with 2 μM of dUY11 (left half of each panel) or with DMSO vehicle (right half of each panel). Vero cells were infected with 0.5; 5; 50; 500; 5,000; or 50,000 PFU of treated HSV-1, as indicated in the cartoon (top panel), washed and overlaid with Dulbecco's Modified Eagle Media (DMEM) supplemented with 5% fetal bovine serum (FBS) and 2% methylcellulose (MC).
Tests were performed to determine whether dUY11 preferentially targets the viral envelope or the cell membrane. […] HSV-1 KOS (200 PFU) were incubated with 0, 0.002, 0.007, 0.02, 0.07, 0.2, 0.7, 2, 7, 20 or 70 μM dUY11 for 5 minutes at 37° C. Vero cells were then infected with so-pretreated virions for 1 hour, washed and overlaid with medium supplemented with 5% FBS and 2% MC (▪). Alternatively, untreated inocula were used to infect untreated Vero cells (▴) or Vero cells pretreated at 37° C. for up to 60 minutes with 0, 2, 7, 20 or 70 μM dUY11 (●). Non-pretreated infected cells were then overlayed with medium supplemented with 5% FBS and 2% MC supplemented with 0, 2, 7, 20 or 70 μM dUY11. […] Error bars represent ranges of three or more experiments.

[14] = Human alphaherpesvirus 1, Vero, Table 1, read-out: IC50 (μM) on infectivity of HSV-1 on Vero cells
[15] = 10^3 or 3×10^3 HSV-2 virions exposed to 70 μM, vaginal infection

O=c1[nH]c(=O)n([C@@H]2O[C@H](CO)C(O)C2O)cc1C#Cc1ccc2c3cccc4cccc(c5cccc1c52)c43 (some centres unmarked) [aUY11, 5-(Perylen-3-ylethynyl)-arabino-uridine]
IC50 (HSV-1 KOS [1]; [14]): 0.075 µM | potency compared with dUY11 (HSV-1 KOS [1]): approximately as potent as dUY11 | cytotoxicity (in words) (Vero cells [2]): neither were cytotoxic

O=c1[nH]c(=O)n([C@H]2CC[C@@H](CO)O2)cc1C#Cc1ccc2c3cccc4cccc(c5cccc1c52)c43 [ddUY11, 5-(Perylen-3-ylethynyl)-2′,3′-dideoxyuridine]
IC50 (HSV-1 KOS [1]; [14]): 0.045 µM | potency compared with dUY11 (HSV-1 KOS [1]): approximately as potent as dUY11 | cytotoxicity (in words) (Vero cells [2]): neither were cytotoxic

O=c1[nH]c(=O)n([C@H]2C[C@H](O)[C@@H](CO)O2)cc1C#Cc1ccc2c3cccc4cccc(c5cccc1c52)c43 [dUY11]
inhibition of HSV-1 DNA replication (intracellular viral DNA) (HSV-1 [3]): does not inhibit HSV-1 DNA replication; also recorded: does not inhibit viral DNA replication at any time tested | inhibition of release of HSV-1 DNA (extracellular viral DNA) (HSV-1 [4]): does not inhibit the release of progeny HSV-1 DNA | time to inhibit HSV-1 infectivity by 50% (HSV-1 KOS [1]; 20 nM (IC50) at 37° C., Vero cells): 220 s | infectivity with virions pretreated with 700 nM (HSV-1 KOS [1]; 700 nM, Vero cells): fully inhibited | effect on viral infectivity, plaque assay (HSV-1 KOS [1]; 2 μM, inocula incubated 0 or 5 min at 37° C.): inhibits viral infectivity | infectivity in parallel to binding study (HSV-1 KOS [1]; 7 μM): did abrogate infectivity | IC50 (HSV-1 KOS [1]; Table 1, read-out: IC50 (μM) on infectivity of HSV-1 on Vero cells): 0.05 µM | maximum inhibition, virion pretreatment (HSV-1 KOS [1]; up to 70 μM): 100% | IC50 (HSV-1 KOS [1]; virions pretreated 5 minutes at 37° C., Vero cells, calculated graphically, read-out: IC50, HSV-1 infectivity): 0.02 µM and 0.025 µM and 0.024 µM | infectivity with virions pretreated with 700 nM (HSV-1 KOS [5]; 700 nM): fully inhibited | IC50 (HSV-1 KOS [5]; virions pretreated 5 minutes at 37° C.): 20 nM | inhibition of HSV-1 virion binding to cells (HSV-1 KOS [6]): did not inhibit virion binding; also recorded: does not inhibit HSV-1 binding | virucidal activity (HSV-1 [7]): not virucidal | block of low- or high-affinity binding (HSV-1 [7]; heparin washes 0 to 1,000 μg/ml): does not block either low- or high-affinity binding; also recorded: does not block high-affinity binding | HSV-1 entry (RFP expression in reporter cells) (HSV-1 KOS [8]): no detectable fluorescence; also recorded: inhibits HSV-1 entry | IC50 (HSV-2 strain 186): 49 nM | IC50 (HSV-2 strain 333): 65 nM | IC50 (VSV): 6 nM | IC50 (SIN virus): 58 nM | fold higher concentration for cell pretreatment versus virion pretreatment (HSV-1 KOS [9]): 270 fold | IC50 (HSV-1 KOS [10]; cells exposed for only 1 hour): 3900 nM | reduction in infectivity of virions budded from treated cells (HSV-1 KOS [10]; cells exposed for only 1 hour after removing inoculum): 6 orders of magnitude | effect on infectivity of progeny virions (in words) (HSV-1 KOS [10]; cells treated for 24 or only 1 hours): inhibits the infectivity of progeny virions | reduction in infectivity of virions produced by treated cells (HSV-1 KOS [10]; cells treated for 24 hours after infection, up to 2 μM): 8 orders of magnitude | mice shedding detectable infectious virus (HSV-2; [15]): None of the ten mice | mice showing clinical signs of infection (HSV-2; [15]): None of the ten mice | protection of mice from vaginal (genital) infection (HSV-2; virions exposed to 70 μM): protects mice from genital infection; also recorded: protects from vaginal infection with HSV-2; also recorded: non-infectious to mice | stability in medium ([11]; 150 μM): not stable in medium for long periods | concentration at which homogeneously dispersed in media ([11]; culture media): up to 70,000 nM | cytotoxicity (in words) (Vero cells [12]): non-cytotoxic | safety index (SI) (Vero cells [2]; 50% cytotoxicity not reached): > 7,500 | effect on viral replication when added after infection (HSV-1 [13]): no effect on viral replication; also recorded: no effect on HSV-1 replication
